Test results: PMC9694544, “Conteltinib (CT-707) in patients with advanced ALK-positive non-small cell lung cancer: a multicenter, open-label, first-in-human phase 1 study” (BMC Medicine, 2022)

Test system: patients with ALK-positive NSCLC
Assay: Phase 1 safety assessment (TRAEs by CTCAE 4.03, DLT, MTD, RP2D)
Format: in vivo, human
Description: In the dose-escalation phase, the dose was escalated sequentially from a low to a high level with a 3 + 3 dose-escalation scheme based on the modified Fibonacci method. The starting dose for conteltinib was 50 mg orally quaque die (QD). Dose escalation proceeded to the next six cohorts of 100 mg, 200 mg, 300 mg, 450 mg, 600 mg, and 800 mg QD. For each dose, there was a PK lead-in phase where a single dose was given 7 days before cycle 1 day 1. Then, each dose was taken continuously in a 28-day cycle. The first cycle was for dose-limiting toxicity (DLT) investigation. When one of three patients experienced a DLT in a dose cohort, three additional patients were enrolled in the same dose cohort to assess the dose level in a total of six patients. All patients received conteltinib until disease progression, unacceptable toxicity, or withdrawal of consent. Patients received follow-up safety assessments for 30 days (±7 days) after the last conteltinib dose.
In the dose-expansion phase, each dose was taken continuously in a 28-day cycle. At the end of each cycle, a safety evaluation was conducted. If patients met the criteria to enter the next cycle, treatment with conteltinib was continued for subsequent cycles. All patients received conteltinib until disease progression, unacceptable toxicity, or withdrawal of consent. Patients received follow-up safety assessments for 30 days (±7 days) after the last dose of conteltinib.
The safety of conteltinib was assessed in safety set (SS) which was based on the National Cancer Institute Common Terminology Criteria for Adverse Events (CTCAE) version 4.03, laboratory tests, vital signs, ECG, and clinical observations. […] Adverse events (AEs) were judged to be treatment-related or not by investigators.
DLTs were AEs occurring in the first cycle of treatment (28 days) that were attributed to conteltinib, and the criteria were grade 4 neutropenia lasting ≥ 7 days, febrile neutropenia, grade 3 thrombocytopenia, grade 3 non-hematologic toxicity, and any conteltinib-related toxicity resulting in treatment delay > 2 weeks or discontinuation of conteltinib treatment at the assigned dose level. Besides, grade 3 nausea, vomiting, or diarrhea for ≥ 3 days or grade 4 nausea, vomiting, or diarrhea of any duration was considered as a DLT. The MTD was defined as the dose of conteltinib that would be closest to but not higher than a 33% probability of a DLT.

COc1cc(N2CCC(N3CCN(C)CC3)CC2)ccc1Nc1nc2c(c(Nc3ccccc3S(=O)(=O)NC(C)C)n1)CCN2 [Conteltinib]
9 (64.3) n (%): TRAE AST elevated (450 mg QD (n=14), Grade 1–2)
2 (16.7) n (%): TRAE Abdominal pain (300 mg BID (n=12), Grade 1–2) | TRAE Appetite decreased (300 mg BID (n=12), Grade 1–2) | TRAE Hyperuricemia (300 mg BID (n=12), Grade 1–2) | TRAE Vomiting (300 mg BID (n=12), Grade 1–2) | TRAE Weight loss (300 mg BID (n=12), Grade 1–2)
4 (33.3) n (%): TRAE Hypoalbuminemia (300 mg BID (n=12), Grade 1–2) | TRAE Nausea (300 mg BID (n=12), Grade 1–2)
10 (83.3) n (%): Patients with any TRAE (300 mg BID (n=12), Grade 1–2)
3 (25.0) n (%): TRAE ALT elevated (300 mg BID (n=12), Grade 1–2) | TRAE AST elevated (300 mg BID (n=12), Grade 1–2) | TRAE Abdominal pain upper (300 mg BID (n=12), Grade 1–2) | TRAE Proteinuria (300 mg BID (n=12), Grade 1–2) | TRAE γ-GGT elevated (300 mg BID (n=12), Grade 1–2)
10 (71.4) n (%): TRAE ALT elevated (450 mg QD (n=14), Grade 1–2)
0 (0.0) n (%): TRAE Abdominal pain (200 mg QD (n=3), Grade ≥ 3) | TRAE Abdominal pain upper (200 mg QD (n=3), Grade ≥ 3) | TRAE Appetite decreased (200 mg QD (n=3), Grade ≥ 3) | TRAE Conjugated bilirubin elevated (200 mg QD (n=3), Grade ≥ 3) | TRAE Diarrhea (200 mg QD (n=3), Grade ≥ 3) | TRAE Hypercholesterolemia (200 mg QD (n=3), Grade ≥ 3) | TRAE Hyperglycemia (200 mg QD (n=3), Grade ≥ 3) | TRAE Hypertriglyceridemia (200 mg QD (n=3), Grade ≥ 3) | TRAE Hyperuricemia (200 mg QD (n=3), Grade ≥ 3) | TRAE Hypoalbuminemia (200 mg QD (n=3), Grade ≥ 3) | TRAE Nausea (200 mg QD (n=3), Grade ≥ 3) | TRAE Proteinuria (200 mg QD (n=3), Grade ≥ 3) | TRAE Serum creatinine elevated (200 mg QD (n=3), Grade ≥ 3) | TRAE Vomiting (200 mg QD (n=3), Grade ≥ 3) | TRAE Weight loss (200 mg QD (n=3), Grade ≥ 3) | TRAE γ-GGT elevated (200 mg QD (n=3), Grade ≥ 3) | TRAE Hypercholesterolemia (300 mg BID (n=12), Grade 1–2) | TRAE Hyperglycemia (300 mg BID (n=12), Grade 1–2) | TRAE ALT elevated (300 mg BID (n=12), Grade ≥ 3) | TRAE AST elevated (300 mg BID (n=12), Grade ≥ 3) | TRAE Abdominal pain (300 mg BID (n=12), Grade ≥ 3) | TRAE Abdominal pain upper (300 mg BID (n=12), Grade ≥ 3) | TRAE Appetite decreased (300 mg BID (n=12), Grade ≥ 3) | TRAE Diarrhea (300 mg BID (n=12), Grade ≥ 3) | TRAE Hypercholesterolemia (300 mg BID (n=12), Grade ≥ 3) | TRAE Hyperglycemia (300 mg BID (n=12), Grade ≥ 3) | TRAE Hypertriglyceridemia (300 mg BID (n=12), Grade ≥ 3) | TRAE Hyperuricemia (300 mg BID (n=12), Grade ≥ 3) | TRAE Hypoalbuminemia (300 mg BID (n=12), Grade ≥ 3) | TRAE Nausea (300 mg BID (n=12), Grade ≥ 3) | TRAE Proteinuria (300 mg BID (n=12), Grade ≥ 3) | TRAE Serum creatinine elevated (300 mg BID (n=12), Grade ≥ 3) | TRAE Vomiting (300 mg BID (n=12), Grade ≥ 3) | TRAE Weight loss (300 mg BID (n=12), Grade ≥ 3) | TRAE Abdominal pain (300 mg QD (n=3), Grade 1–2) | TRAE Abdominal pain upper (300 mg QD (n=3), Grade 1–2) | TRAE Appetite decreased (300 mg QD (n=3), Grade 1–2) | TRAE Conjugated bilirubin elevated (300 mg QD (n=3), Grade 1–2) | TRAE Hyperuricemia (300 mg QD (n=3), Grade 1–2) | TRAE Proteinuria (300 mg QD (n=3), Grade 1–2) | TRAE γ-GGT elevated (300 mg QD (n=3), Grade 1–2) | Patients with any TRAE (300 mg QD (n=3), Grade ≥ 3) | TRAE ALT elevated (300 mg QD (n=3), Grade ≥ 3) | TRAE AST elevated (300 mg QD (n=3), Grade ≥ 3) | TRAE Abdominal pain (300 mg QD (n=3), Grade ≥ 3) | TRAE Abdominal pain upper (300 mg QD (n=3), Grade ≥ 3) | TRAE Appetite decreased (300 mg QD (n=3), Grade ≥ 3) | TRAE Conjugated bilirubin elevated (300 mg QD (n=3), Grade ≥ 3) | TRAE Diarrhea (300 mg QD (n=3), Grade ≥ 3) | TRAE Hypercholesterolemia (300 mg QD (n=3), Grade ≥ 3) | TRAE Hyperglycemia (300 mg QD (n=3), Grade ≥ 3) | TRAE Hypertriglyceridemia (300 mg QD (n=3), Grade ≥ 3) | TRAE Hyperuricemia (300 mg QD (n=3), Grade ≥ 3) | TRAE Hypoalbuminemia (300 mg QD (n=3), Grade ≥ 3) | TRAE Nausea (300 mg QD (n=3), Grade ≥ 3) | TRAE Proteinuria (300 mg QD (n=3), Grade ≥ 3) | TRAE Serum creatinine elevated (300 mg QD (n=3), Grade ≥ 3) | TRAE Vomiting (300 mg QD (n=3), Grade ≥ 3) | TRAE Weight loss (300 mg QD (n=3), Grade ≥ 3) | TRAE γ-GGT elevated (300 mg QD (n=3), Grade ≥ 3)
5 (35.7) n (%): TRAE Abdominal pain (450 mg QD (n=14), Grade 1–2) | TRAE Abdominal pain upper (450 mg QD (n=14), Grade 1–2)
5 (41.7) n (%): TRAE Serum creatinine elevated (300 mg BID (n=12), Grade 1–2)
3 (100) n (%): Patients with any TRAE (300 mg QD (n=3), Grade 1–2) | TRAE Diarrhea (300 mg QD (n=3), Grade 1–2) | TRAE Weight loss (300 mg QD (n=3), Grade 1–2)
14 (100) n (%): Patients with any TRAE (450 mg QD (n=14), Grade 1–2)
8 (66.7) n (%): TRAE Diarrhea (300 mg BID (n=12), Grade 1–2)
1 (8.3) n (%): TRAE Conjugated bilirubin elevated (300 mg BID (n=12), Grade 1–2) | TRAE Hypertriglyceridemia (300 mg BID (n=12), Grade 1–2) | Patients with any TRAE (300 mg BID (n=12), Grade ≥ 3) | TRAE Conjugated bilirubin elevated (300 mg BID (n=12), Grade ≥ 3) | TRAE γ-GGT elevated (300 mg BID (n=12), Grade ≥ 3)
1 (33.3) n (%): TRAE AST elevated (300 mg QD (n=3), Grade 1–2) | TRAE Hypercholesterolemia (300 mg QD (n=3), Grade 1–2) | TRAE Hyperglycemia (300 mg QD (n=3), Grade 1–2) | TRAE Hypertriglyceridemia (300 mg QD (n=3), Grade 1–2) | TRAE Hypoalbuminemia (300 mg QD (n=3), Grade 1–2) | TRAE Nausea (300 mg QD (n=3), Grade 1–2) | TRAE Serum creatinine elevated (300 mg QD (n=3), Grade 1–2) | TRAE Vomiting (300 mg QD (n=3), Grade 1–2)
13 (92.9) n (%): TRAE Diarrhea (450 mg QD (n=14), Grade 1–2)
2 (14.3) n (%): TRAE Appetite decreased (450 mg QD (n=14), Grade 1–2) | TRAE Conjugated bilirubin elevated (450 mg QD (n=14), Grade 1–2)
